Experimental findings from ChEMBL document CHEMBL1201862, “PubChem BioAssay data set” (2004) are described below.

For test [1], the target named is Eukaryotic translation initiation factor 4H (Homo sapiens, UniProt Q15056). Briefly: human eIF4H binding inhibitors, primary screen, translation initiation inhibitor project, biochemical, uHTS, fluorescence polarization (AID 2012). Background: Fluorescence polarisation rises when a labelled molecule tumbles more slowly, as on binding a larger partner.
In test [2] the target is Polyadenylate-binding protein 1 (Homo sapiens, UniProt P11940). Briefly: PABP poly(A) RNA binding inhibitors, primary screen, biochemical, fluorescence polarization, uHTS (AID 2014).
The target in test [3] is DNA dC->dU-editing enzyme APOBEC-3A (Homo sapiens, UniProt P31941). Briefly: Dose Response confirmation of small molecule APOBEC3A DNA Deaminase Inhibitors via a fluorescence-based single-stranded DNA deaminase assay. [Related pubchem assays (depositor defined):AID493011, AID493024]. It is filed as functional.
Test [4] deals with DNA dC->dU-editing enzyme APOBEC-3G (Homo sapiens, UniProt Q9HC16). It is filed as functional.
Test [5] deals with T1, G-protein coupled receptor 55 (Homo sapiens, UniProt Q9Y2T6). Briefly: GPR55 agonists via beta-arrestin recruitment, primary screen, imaging, U2OS cells, beta-arrestin-GFP redistribution (AID 1961). It is filed as functional.
The next test addresses SUMO-activating enzyme (Homo sapiens, UniProt Q9UBT2). Briefly: SUMOylation inhibitor hit validation, confirmation, SUMOylation inhibitor project, biochemical, AlphaScreen (AID 2018). Type of test: functional.
Another test addresses Trypsin (Sus scrofa, UniProt P00761). Briefly: porcine trypsin inhibitors, dose response, selectivity assay for Rce1 protease inhibitor project, biochemical, quenched peptide fluorescence, cherry-pick (AID 488789).
Test [6] concerns the target Glyceraldehyde-3-phosphate dehydrogenase (Homo sapiens, UniProt P04406).
The target of test [7] is Alkaline phosphatase, placental type (Homo sapiens, UniProt P05187). Briefly: PLAP enzyme inhibitors, confirmation, biochemical, luminescence (AID 1512). It is filed as functional.
In test [8] the target is T2, Alkaline phosphatase, tissue-nonspecific isozyme (Homo sapiens, UniProt P05186).
T2 sequence (P05186 whole entry): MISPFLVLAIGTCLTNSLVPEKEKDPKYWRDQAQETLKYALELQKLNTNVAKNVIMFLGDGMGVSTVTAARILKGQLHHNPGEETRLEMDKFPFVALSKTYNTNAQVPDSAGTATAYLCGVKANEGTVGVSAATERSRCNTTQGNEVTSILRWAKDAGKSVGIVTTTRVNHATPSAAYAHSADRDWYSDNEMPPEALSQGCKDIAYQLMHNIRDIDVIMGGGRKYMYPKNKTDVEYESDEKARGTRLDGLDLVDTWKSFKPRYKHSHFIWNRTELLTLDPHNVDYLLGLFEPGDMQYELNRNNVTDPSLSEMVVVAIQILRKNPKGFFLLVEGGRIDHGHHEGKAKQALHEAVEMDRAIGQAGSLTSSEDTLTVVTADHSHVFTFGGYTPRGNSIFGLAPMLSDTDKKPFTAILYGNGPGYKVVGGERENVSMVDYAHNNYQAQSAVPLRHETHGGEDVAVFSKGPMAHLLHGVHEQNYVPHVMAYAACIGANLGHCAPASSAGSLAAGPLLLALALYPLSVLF
Briefly: human TNAP enzyme inhibitors, SAR follow-up, biochemical, luminescent, dose response (AID 1056).

For test [9], the target named is T3, Cannabinoid receptor 2 (Homo sapiens, UniProt P34972). Briefly: SAR analysis of antagonists of the Cannabinoid Receptor 2 using an Image-Based Assay - Set 2. [Related pubchem assays (depositor defined):AID1961, AID1965]. It is filed as functional.
In test [10] the target is T1, G-protein coupled receptor 55. Briefly: SAR analysis of selective Agonists of GPR55 using an Image-Based Assay - Set 2. [Related pubchem assays (depositor defined):AID1961, AID1965]. It is filed as functional.
In test [11] the target is T3, Cannabinoid receptor 2. Briefly: SAR analysis of agonists of the Cannabinoid Receptor 2 using an Image-Based Assay - Set 2. [Related pubchem assays (depositor defined):AID1961, AID1965]. It is filed as functional.
Test [12] has as its target T4, G-protein coupled receptor 35 (Homo sapiens, UniProt Q9HC97). Briefly: SAR analysis of Agonists of the GPR35 Receptor using an Image-Based Assay - Set 3. [Related pubchem assays (depositor defined):AID1961, AID1965]. Type of test: functional.
Test [13] has as its target T5, Cannabinoid receptor 1 (Homo sapiens, UniProt P21554). Briefly: SAR analysis of antagonists of the Cannabinoid Receptor 1 using an Image-Based Assay - Set 3. [Related pubchem assays (depositor defined):AID1961, AID1965]. Type of test: functional.
The target in test [14] is T5, Cannabinoid receptor 1. Briefly: SAR analysis of agonists of the Cannabinoid Receptor 1 using an Image-Based Assay - Set 3. [Related pubchem assays (depositor defined):AID1961, AID1965]. Type of test: functional.
For test [15], the target named is T4, G-protein coupled receptor 35. Briefly: SAR analysis of Antagonists of the GPR35 Receptor using an Image-Based Assay - Set 4. [Related pubchem assays (depositor defined):[…]]. It is filed as functional.
For test [16], the target named is T6, RNA-binding protein pos-1 (Caenorhabditis elegans, UniProt G5EF15).
T6 sequence (G5EF15 whole entry): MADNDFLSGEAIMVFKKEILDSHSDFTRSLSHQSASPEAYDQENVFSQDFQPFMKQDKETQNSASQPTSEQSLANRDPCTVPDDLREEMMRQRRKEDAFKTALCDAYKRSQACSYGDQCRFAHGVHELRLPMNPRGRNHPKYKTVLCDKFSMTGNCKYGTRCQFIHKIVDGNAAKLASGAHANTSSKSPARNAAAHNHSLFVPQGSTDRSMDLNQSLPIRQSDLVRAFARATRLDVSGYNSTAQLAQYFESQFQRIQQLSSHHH
Briefly: inhibitors of POS-1/mex-3 RNA binding, dose response, biochemical, fluorescence polarization (AID 1964).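 Further: purified POS-1 fused to maltose binding protein made in E. coli; potency of compounds blocking POS-1 binding to fluorescent RNA.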

Test [17] addresses T7, Zinc finger protein mex-5 (Caenorhabditis elegans, UniProt Q9XUB2).
T7 sequence (Q9XUB2 whole entry): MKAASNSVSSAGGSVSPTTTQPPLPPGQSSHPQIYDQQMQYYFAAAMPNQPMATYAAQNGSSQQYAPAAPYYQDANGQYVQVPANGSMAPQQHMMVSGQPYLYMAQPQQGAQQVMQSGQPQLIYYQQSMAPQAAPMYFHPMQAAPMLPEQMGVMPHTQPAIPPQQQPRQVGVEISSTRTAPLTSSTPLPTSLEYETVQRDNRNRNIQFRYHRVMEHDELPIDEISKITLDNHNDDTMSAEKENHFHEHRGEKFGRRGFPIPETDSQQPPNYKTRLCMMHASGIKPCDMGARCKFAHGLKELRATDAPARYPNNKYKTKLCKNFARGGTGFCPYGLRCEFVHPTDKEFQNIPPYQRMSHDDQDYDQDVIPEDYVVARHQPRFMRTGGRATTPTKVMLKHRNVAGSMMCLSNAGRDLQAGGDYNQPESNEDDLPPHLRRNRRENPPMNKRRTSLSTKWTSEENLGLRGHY
Briefly: MEX-5/TCR-2 RNA interaction inhibitors, dose response, biochemical, C. elegans, fluorescence polarization (AID 1960).

The target in the next test is Bcl-2-like protein 10 (Homo sapiens, UniProt Q9HD36). Briefly: displacers of TR3 peptide from Bcl-B, primary screen, selectivity assay for Bfl-1 inhibitor project, biochemical, fluorescence polarization, FITC-TR3 peptide (AID 748).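 Further: fluorescence polarization from a fluorescein-labelled TR3 peptide binding purified Bcl-B.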
Another test has as its target Estrogen receptor beta (Homo sapiens, UniProt Q92731).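 Further: recombinant ER-beta bound to coactivator SRC1 peptide in presence of estradiol agonist; inhibitors block coactivator peptide binding and lower the FRET signal.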
For test [18], the target named is Induced myeloid leukemia cell differentiation protein Mcl-1 (Homo sapiens, UniProt Q07820). Type of test: functional.
The target of test [19] is Glucose-6-phosphate 1-dehydrogenase (Homo sapiens, UniProt P11413). Briefly: human G6PD enzyme inhibitors, dose response, selectivity assay for P. falciparum G6PD inhibitor project, biochemical, fluorescence (AID 504792). Type of test: functional.
Another test has as its target Beta-galactosidase (Escherichia coli, UniProt Q8VNN2). Briefly: beta-galactosidase enzyme inhibitors and activators, dose response, artefact control for CCR6 antagonist project, biochemical, E. coli enzyme, set 3 (AID 504712). It is filed as functional.
For test [20], the target named is Heat shock protein HSP 90-alpha (Homo sapiens, UniProt P07900). Type of test: functional, organism-based.
For test [21], the system named is Streptococcus sp. 'group A'. Briefly: growth inhibition of control SK(-) GAS strain, dose response, counter-screen for streptokinase expression inhibitor project, luminescence, kanamycin, BacTiterGlo, confirmation (AID 1900). It is filed as functional, organism-based. Background: Counterscreens check selectivity or assay interference.
Test [22] can be described thus: inhibitors of intracellular T. cruzi replication, confirmation, NIH3T3 host cells, beta-gal luminescence (AID 2044).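 Further: intracellular parasites grown in NIH/3T3 mouse fibroblasts as host cells; luminescent beta-galactosidase reporter signal from transgenic T. cruzi replicating inside host cells; inhibitors lower the luminescence signal.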 It is filed as functional, cell-based.
Test [23] in a line: microbe, parasite or virus in culture. Type of test: functional. The note with it: Mycobacterium tuberculosis.
Test [24] can be described thus: cytotoxicity toward NIH3T3 fibroblasts, dose response, counter-screen, cell-based, ATP luminescence, mouse fibroblasts (AID 2010).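 Further: cells exposed to compound for about 90 hours before reading.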 Type of test: functional.
The subject of another test is Streptococcus. Briefly: Group A Streptococcus viability loss, dose response, counter-screen for streptokinase expression inhibitor project, luminescence, BacTiterGlo (AID 1915).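 Further: potency for reduction of bacterial viability or growth.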 It is filed as functional, organism-based.
Test [25] is described as follows: THP-1 cell cytotoxicity, dose response, cytotoxicity control for non-replicating M. tuberculosis project (AID 489025). It is filed as functional.
Test [26] can be described thus: HepG2 cell cytotoxicity, dose response, cytotoxicity control for non-replicating M. tuberculosis project (AID 489018). To be noted: Mycobacterium tuberculosis. It is filed as functional.
Test [27] is described as follows: cells. Type of test: functional.
For a further test, the system named is HEK293. Briefly: inhibitors of LMP1-driven NF-kB reporter, dose response, cell-based, HEK293, luciferase, cherry-pick (AID 588343). It is filed as functional. To be noted: Homo sapiens.
Another test concerns P388/ADR. Briefly: cells. To be noted: Mus musculus. It is filed as functional.
Another test deals with SN12K1. Briefly: cells. It is filed as functional. The note with it: Homo sapiens.
For the next test, the system named is P388. Briefly: cells. It is filed as functional. The note with it: Mus musculus.
Test [28] is described as follows: cells.

The source made the active and inactive calls.

T1 sequence (Q9Y2T6 whole entry): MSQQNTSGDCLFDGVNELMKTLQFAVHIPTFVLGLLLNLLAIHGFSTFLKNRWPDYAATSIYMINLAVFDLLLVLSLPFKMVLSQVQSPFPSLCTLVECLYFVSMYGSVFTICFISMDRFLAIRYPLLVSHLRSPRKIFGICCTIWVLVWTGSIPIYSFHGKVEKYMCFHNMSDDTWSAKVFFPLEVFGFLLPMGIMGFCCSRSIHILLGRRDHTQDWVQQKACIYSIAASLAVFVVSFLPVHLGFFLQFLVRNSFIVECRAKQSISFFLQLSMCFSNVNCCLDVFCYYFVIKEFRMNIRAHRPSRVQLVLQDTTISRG
T3 sequence (P34972 whole entry): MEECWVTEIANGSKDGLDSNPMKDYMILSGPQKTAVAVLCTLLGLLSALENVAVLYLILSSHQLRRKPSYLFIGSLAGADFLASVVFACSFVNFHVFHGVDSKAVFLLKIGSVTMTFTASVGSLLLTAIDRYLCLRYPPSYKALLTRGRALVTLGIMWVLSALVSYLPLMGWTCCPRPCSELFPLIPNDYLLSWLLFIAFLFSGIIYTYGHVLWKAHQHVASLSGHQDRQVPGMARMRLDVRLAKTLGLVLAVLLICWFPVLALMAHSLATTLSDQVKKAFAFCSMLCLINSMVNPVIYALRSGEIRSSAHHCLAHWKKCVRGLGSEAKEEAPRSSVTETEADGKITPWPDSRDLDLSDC
T4 sequence (Q9HC97 whole entry): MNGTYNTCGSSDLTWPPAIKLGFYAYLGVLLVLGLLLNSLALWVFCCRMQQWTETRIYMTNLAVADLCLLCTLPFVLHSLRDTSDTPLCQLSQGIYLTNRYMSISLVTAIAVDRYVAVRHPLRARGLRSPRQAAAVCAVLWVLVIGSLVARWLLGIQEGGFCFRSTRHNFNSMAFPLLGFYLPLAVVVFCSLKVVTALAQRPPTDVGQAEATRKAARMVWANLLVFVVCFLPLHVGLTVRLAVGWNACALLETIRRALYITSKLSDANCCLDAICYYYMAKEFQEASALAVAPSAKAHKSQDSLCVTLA
T5 sequence (P21554 whole entry): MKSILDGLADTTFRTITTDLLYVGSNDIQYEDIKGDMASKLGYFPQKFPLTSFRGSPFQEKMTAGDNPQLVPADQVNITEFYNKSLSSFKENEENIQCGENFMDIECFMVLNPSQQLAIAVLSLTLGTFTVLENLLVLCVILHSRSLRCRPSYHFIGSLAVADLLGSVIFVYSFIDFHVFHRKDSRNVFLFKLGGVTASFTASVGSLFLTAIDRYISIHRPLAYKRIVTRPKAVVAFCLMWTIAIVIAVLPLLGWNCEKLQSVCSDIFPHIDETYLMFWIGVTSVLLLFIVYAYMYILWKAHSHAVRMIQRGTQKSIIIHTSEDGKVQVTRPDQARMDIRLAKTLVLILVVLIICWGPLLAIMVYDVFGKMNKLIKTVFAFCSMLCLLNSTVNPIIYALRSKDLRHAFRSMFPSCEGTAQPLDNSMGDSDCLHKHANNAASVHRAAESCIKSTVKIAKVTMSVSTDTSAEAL
Sequence of Alkaline phosphatase, placental type (P05187 whole entry): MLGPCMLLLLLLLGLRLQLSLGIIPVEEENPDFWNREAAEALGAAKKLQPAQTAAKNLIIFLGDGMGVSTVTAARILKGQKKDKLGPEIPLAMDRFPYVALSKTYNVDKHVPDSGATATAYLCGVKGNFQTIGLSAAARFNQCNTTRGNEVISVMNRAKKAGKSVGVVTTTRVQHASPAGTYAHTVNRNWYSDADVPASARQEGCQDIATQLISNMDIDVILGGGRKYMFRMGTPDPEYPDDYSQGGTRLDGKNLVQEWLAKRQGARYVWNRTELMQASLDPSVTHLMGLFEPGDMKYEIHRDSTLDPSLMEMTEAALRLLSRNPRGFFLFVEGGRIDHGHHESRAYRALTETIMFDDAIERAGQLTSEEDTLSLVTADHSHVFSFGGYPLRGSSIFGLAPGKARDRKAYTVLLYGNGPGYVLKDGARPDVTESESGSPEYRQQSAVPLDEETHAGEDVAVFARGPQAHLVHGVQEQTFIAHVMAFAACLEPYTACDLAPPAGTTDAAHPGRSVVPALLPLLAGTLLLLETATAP
Sequence of SUMO-activating enzyme (Q9UBE0 whole entry): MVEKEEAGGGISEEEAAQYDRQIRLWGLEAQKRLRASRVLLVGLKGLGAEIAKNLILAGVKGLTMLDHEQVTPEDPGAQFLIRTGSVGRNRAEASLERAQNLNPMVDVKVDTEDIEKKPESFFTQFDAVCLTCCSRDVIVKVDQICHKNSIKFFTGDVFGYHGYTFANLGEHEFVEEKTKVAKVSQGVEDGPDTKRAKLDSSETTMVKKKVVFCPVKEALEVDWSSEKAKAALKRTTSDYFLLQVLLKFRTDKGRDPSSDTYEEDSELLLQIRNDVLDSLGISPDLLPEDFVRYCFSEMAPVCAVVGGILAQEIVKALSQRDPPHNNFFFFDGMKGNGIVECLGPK
Sequence of SUMO-activating enzyme (Q9UBT2 whole entry): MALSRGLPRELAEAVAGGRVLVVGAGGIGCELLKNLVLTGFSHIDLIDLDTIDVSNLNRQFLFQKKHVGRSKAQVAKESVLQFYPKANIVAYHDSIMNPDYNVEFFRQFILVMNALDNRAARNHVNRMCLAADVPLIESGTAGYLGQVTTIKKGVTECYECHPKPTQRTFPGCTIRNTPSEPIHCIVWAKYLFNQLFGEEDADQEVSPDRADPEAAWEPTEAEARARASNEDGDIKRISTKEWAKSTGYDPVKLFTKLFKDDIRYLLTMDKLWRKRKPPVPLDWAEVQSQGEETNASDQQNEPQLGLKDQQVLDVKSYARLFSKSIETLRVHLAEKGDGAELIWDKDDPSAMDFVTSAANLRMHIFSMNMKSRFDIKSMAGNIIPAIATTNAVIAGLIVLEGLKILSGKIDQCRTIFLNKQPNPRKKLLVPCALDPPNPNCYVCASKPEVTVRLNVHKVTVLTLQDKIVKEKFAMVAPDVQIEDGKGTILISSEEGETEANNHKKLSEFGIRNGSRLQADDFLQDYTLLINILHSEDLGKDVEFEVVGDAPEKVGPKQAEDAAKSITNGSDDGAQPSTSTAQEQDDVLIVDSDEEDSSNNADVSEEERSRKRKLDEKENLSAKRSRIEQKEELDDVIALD
Sequence of Glyceraldehyde-3-phosphate dehydrogenase (P04406 whole entry): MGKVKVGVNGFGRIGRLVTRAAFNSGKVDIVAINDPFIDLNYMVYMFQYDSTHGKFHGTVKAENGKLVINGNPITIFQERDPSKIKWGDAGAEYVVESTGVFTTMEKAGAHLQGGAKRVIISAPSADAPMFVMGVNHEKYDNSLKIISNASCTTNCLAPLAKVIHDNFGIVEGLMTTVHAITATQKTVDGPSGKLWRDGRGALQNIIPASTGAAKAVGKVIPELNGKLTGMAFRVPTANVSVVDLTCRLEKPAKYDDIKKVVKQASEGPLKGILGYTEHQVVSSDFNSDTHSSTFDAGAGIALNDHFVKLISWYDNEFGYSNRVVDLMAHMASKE
Sequence of Beta-galactosidase (Q8VNN2 whole entry): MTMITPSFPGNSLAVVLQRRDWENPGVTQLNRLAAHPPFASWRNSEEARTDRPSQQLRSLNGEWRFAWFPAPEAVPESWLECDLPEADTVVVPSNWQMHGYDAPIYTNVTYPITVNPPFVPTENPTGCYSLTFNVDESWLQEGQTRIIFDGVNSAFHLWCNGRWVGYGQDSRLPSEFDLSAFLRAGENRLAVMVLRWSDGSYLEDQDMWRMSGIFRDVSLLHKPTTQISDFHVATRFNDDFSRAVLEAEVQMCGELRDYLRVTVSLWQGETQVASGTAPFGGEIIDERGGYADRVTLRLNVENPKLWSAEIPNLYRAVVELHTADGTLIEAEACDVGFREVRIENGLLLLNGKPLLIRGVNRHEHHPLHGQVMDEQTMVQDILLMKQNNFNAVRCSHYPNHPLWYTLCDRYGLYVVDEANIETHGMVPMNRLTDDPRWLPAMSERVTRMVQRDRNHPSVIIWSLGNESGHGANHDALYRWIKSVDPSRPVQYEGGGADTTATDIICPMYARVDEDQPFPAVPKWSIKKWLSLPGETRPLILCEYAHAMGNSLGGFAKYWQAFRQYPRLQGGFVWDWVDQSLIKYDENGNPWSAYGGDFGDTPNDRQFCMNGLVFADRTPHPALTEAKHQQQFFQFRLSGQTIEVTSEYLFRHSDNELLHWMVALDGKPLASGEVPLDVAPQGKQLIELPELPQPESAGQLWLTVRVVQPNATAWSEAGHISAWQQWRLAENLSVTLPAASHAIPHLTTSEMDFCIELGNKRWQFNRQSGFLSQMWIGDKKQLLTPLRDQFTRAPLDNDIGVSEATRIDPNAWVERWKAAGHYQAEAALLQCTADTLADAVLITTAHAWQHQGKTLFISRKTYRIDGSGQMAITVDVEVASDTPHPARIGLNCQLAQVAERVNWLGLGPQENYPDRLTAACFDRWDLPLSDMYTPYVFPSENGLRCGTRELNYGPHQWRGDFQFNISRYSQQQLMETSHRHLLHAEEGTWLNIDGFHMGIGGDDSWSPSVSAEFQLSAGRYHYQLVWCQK
Sequence of DNA dC->dU-editing enzyme APOBEC-3A (P31941 whole entry): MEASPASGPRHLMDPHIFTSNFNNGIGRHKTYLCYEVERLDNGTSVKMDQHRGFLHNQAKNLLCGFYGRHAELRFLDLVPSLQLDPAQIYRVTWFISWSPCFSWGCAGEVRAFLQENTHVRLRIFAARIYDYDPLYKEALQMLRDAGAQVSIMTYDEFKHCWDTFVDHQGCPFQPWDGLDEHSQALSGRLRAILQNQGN
Sequence of Bcl-2-like protein 10 (Q9HD36 whole entry): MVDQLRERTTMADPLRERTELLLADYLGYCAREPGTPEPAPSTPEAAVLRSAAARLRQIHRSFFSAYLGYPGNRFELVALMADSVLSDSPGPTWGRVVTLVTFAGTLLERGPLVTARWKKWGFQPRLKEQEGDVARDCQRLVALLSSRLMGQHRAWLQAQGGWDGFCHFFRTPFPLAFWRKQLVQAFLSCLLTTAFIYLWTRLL

By IC50 is commonly meant the midpoint of a concentration-inhibition curve. With `C[n+]1ccccc1/C=C1\Sc2ccccc2N1CCO`, the IC50 in test [1] is > 100 µM (inactive); in test [2], 2.22 µM (active); in test [3] it was 1.08 µM (active); in test [4] it was 2.53 µM (active).
As usually defined, the EC50 is the concentration giving half of the maximal effect. Regarding `O=C(CSc1nc2ccccc2o1)N1c2ccccc2Sc2ccccc21`, the EC50 in test [5] was > 32 µM (inactive).
Take `NC(=O)CC(NC(=O)Cc1ccc(Br)cc1)c1ccc(NCCc2ccccc2F)c([N+](=O)[O-])c1` (stereo not drawn): at SUMO-activating enzyme, the IC50 was 78.2 µM (active).
The AC50 is the concentration giving half of the maximal activity seen. In the case of `N=C(N)NC(=O)c1nc(Cl)c(N)nc1N`, the AC50 at Trypsin is 9.3 µM (active).
In the case of `CCCc1nn(C(C)=O)c2c1C(=O)CC(C)(C)C2`, the IC50 was > 100 µM (not active) in test [6], > 100 µM (inactive) in [7] and 19.1 µM (active) in test [8].
With `COc1ccc(S(=O)(=O)N2CCOCC2)cc1NC(=O)c1sc2cccc(F)c2c1C`, the IC50 (on Cannabinoid receptor 2 [9]; at Cannabinoid receptor 1 [13]; in [15]) was > 32 µM (inactive) each time. Besides, the EC50 (in [10]; at Cannabinoid receptor 2 [11]; in [12]; on Cannabinoid receptor 1 [14]) was > 32 µM (inactive) in each case.
Take `CN(C)S(=O)(=O)c1ccc(N2CCCC2)c(C(=O)N2CCN(c3ccccc3)CC2)c1`: the IC50 (on Cannabinoid receptor 2 [9]; on Cannabinoid receptor 1 [13]; in test [15]) was > 32 µM (inactive) each time. The EC50 was 1.67 µM (active) in test [10], > 32 µM (inactive) on Cannabinoid receptor 2 [11], > 32 µM (inactive) in test [12] and > 32 µM (inactive) on Cannabinoid receptor 1 [14].
With `COc1cc2c(cc1OC)C(c1ccc(-c3ccc(Cl)cc3Cl)o1)=NCC2`, the values for the EC50 in test [16], in [17] and in test [5] were > 300 µM (not active), > 300 µM (not active) and > 32 µM (inactive), respectively.
For the compound `O=C(Nc1ccccc1C(=O)O)c1ccccc1`, the IC50 at Bcl-2-like protein 10 was > 100 µM (inactive); against Estrogen receptor beta, > 50 µM (not active).
Take `C=CCN1C(=O)NC2(O)C(=O)c3ccccc3C12O` (stereo not drawn): the IC50 in test [7] was 12.7 µM (active); in [8], 56.3 µM (active).
As to `Cc1ccc(NC(=O)c2cc(N3C(=O)C=CC3=O)ccc2Cl)cc1C`, the figures for the IC50 (in test [18]; in test [19]; at Beta-galactosidase) were 5.4 µM (active), 50 µM (inactive) and > 66.6 µM (inactive), respectively. For the same compound, in test [20], the AC50 is 1.5 µM (active).
One may read the GI50 as the concentration at which growth is held to half of that of the control. `CO[C@@]12[C@H](COC(N)=O)C3=C(C(=O)C(C)=C(N)C3=O)N1C[C@H]1[C@@H]2N1C` (stereo partly drawn) [PORFIROMYCIN]: the EC50 was < 0.06 µM (active) in test [21]; < 0.1 µM (active) in test [22]; 6.8 µM (active) in [24]; < 0.06 µM (active) with Streptococcus; 0.088 µM (active) in the test “cells [28]”. Further, the CC50 in test [23] is 28.3 µM (active); in test [25], 1.32 µM (active); in test [26], > 20 µM (active). Moreover, the IC50 in “cells [27]” is 0.65 µM (active). The concentration at half-maximal activity (AC50) in the test with HEK293 is 4.01 µM (active). The GI50 was 7.74 µM (inactive) with P388/ADR, 3.9 µM (inactive) in the test on SN12K1 and 1.88 µM (inactive) with P388.
